Data from patent US8362000B2, “Azetidinyl diamides as monoacylglycerol lipase inhibitors” (Janssen Pharmaceutica NV, priority 2009, dated 2013).
Where two headings read alike, the source gives them in different places.

How the values were obtained:
MGL = molecular target: T1, MGL (Rattus norvegicus, UniProt Q8R431); test: 2-AG accumulation assay in rat brain homogenate; assay type: biochemical; details: rat brain homogenate, 2-AG accumulation as percent of vehicle; for 2-AG accumulation, % of vehicle control at 1 µM: compound 1 μM, read-out: Rat Brain 2AG % VehCntrl (%) @ 1 μM; for 2-AG accumulation, % of vehicle control at 10 µM: compound 10 μM, read-out: Rat Brain 2AG % VehCntrl (%) @ 10 μM
T1 construct: one g rat brain was homogenized using a Polytron homogenizer; from tissue; host or cells: rat brain homogenate
T1 sequence (Q8R431 1-303): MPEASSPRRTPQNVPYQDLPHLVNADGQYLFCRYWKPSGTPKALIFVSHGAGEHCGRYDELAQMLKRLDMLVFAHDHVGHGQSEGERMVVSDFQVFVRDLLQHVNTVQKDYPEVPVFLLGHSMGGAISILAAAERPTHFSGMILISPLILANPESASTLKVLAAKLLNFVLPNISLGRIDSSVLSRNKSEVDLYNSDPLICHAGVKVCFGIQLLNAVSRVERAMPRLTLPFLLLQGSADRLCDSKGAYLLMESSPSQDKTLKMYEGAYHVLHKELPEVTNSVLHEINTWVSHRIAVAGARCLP

mutant MGL = molecular target: T2, mutant MGL (Homo sapiens, UniProt Q99685, L169S/L176S); test: MGL ThermoFluor assay - mutant; assay type: binding
T2 sequence (Q99685 1-303 L169S/L176S): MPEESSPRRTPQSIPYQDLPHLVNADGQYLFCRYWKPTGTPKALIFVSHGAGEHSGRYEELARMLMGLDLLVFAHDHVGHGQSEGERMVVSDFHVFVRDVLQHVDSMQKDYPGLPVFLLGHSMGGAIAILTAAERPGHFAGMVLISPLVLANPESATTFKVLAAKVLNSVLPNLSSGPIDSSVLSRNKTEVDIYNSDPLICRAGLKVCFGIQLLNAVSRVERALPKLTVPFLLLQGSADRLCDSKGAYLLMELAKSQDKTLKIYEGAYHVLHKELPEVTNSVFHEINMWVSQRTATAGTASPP

[1] = ThermoFluor thermal stability binding assay, read-out: MGL mutant ThermoFluor Kd
[2] = ThermoFluor concentration-response, read-out: MGL mutant ThermoFluor Kd

| Structure (SMILES) | 2-AG accumulation, % of vehicle control at 1 µM (MGL) [%] | Kd (mutant MGL; [1]) [µM] | Kd (mutant MGL; [2]) [µM] | 2-AG accumulation, % of vehicle control at 10 µM (MGL) [%] | Kd (mutant MGL; ThermoFluor, compound concentration measured by qNMR, read-out: MGL mutant ThermoFluor qKd (μM) (using qNMR conc.)) [µM] |
| --- | --- | --- | --- | --- | --- |
| O=C(c1ccc2c(c1)CCCN2C(=O)C1CCCCC1)N1CC(N2CCN(C(=O)c3nccs3)CC2)C1 [Cpd 360] | 819 | 0.068 | – | – | – |
| O=C(c1ccccc1)N1CCN(C2CN(C(=O)c3ccc(-c4ccc(C(F)(F)F)cc4)s3)C2)CC1 [Cpd 347] | 125 | 0.125 | – | – | – |
| O=C(c1ccc2c(c1)CCCN2S(=O)(=O)c1cccc(C(F)(F)F)c1)N1CC(N2CCN(C(=O)c3nccs3)CC2)C1 [Cpd 367, 6-({3-[4-(1,3-Thiazol-2-ylcarbonyl)piperazin-1-yl]azetidin-1-yl}carbonyl)-1-{[3-(trifluoromethyl)phenyl]sulfonyl}-1,2,3,4-tetrahydroquinoline] | 701 | 0.0853 | – | – | – |
| O=C(c1ccc2oc(-c3ccccc3)nc2c1)N1CC(N2CCN(C(=O)c3cscn3)CC2)C1 [Cpd 1382, 2-Phenyl-5-({3-[4-(1,3-thiazol-4-ylcarbonyl)piperazin-1-yl]azetidin-1-yl}carbonyl)-1,3-benzoxazole] | – | – | 0.197 | 293 | – |
| O=C(c1ccccc1)N1CCN(C2CN(C(=O)c3ccc(-c4ccccc4)cc3F)C2)CC1 [Cpd 614] | 87 | – | 0.066 | – | – |
| [2H]c1c([2H])c([2H])c(C(=O)N2CCN(C3CN(C(=O)c4ccc(-c5cccc(C(F)(F)F)c5)cc4)C3)CC2)c([2H])c1[2H] [Cpd 186-A] | 149 | 0.016 | – | – | – |
| O=C(c1ccccc1)N1CCN(C2CN(C(=O)c3ccc(N4CCCCCC4)cc3)C2)CC1 [Cpd 41, 1-[4-({3-[4-(Phenylcarbonyl)piperazin-1-yl]azetidin-1-yl}carbonyl)phenyl]azepane] | – | – | 0.004 | 544 | – |
| CN(c1ccccc1)c1ccc(C(=O)N2CC(N3CCN(C(=O)c4ccccc4)CC3)C2)cc1 [Cpd 40, N-Methyl-N-phenyl-4-({3-[4-(phenylcarbonyl)piperazin-1-yl]azetidin-1-yl}carbonyl)aniline] | – | – | 0.0242 | 490 | – |
| O=C(c1ccccc1)N1CCN(C2CN(C(=O)c3ccc(NCc4ccccc4)c(I)c3)C2)CC1 [Cpd 542] | 366 | – | 0.014 | – | – |
| Cc1nc(-c2ccc(Cl)cc2)sc1C(=O)N1CC(N2CCN(C(=O)c3cscn3)CC2)C1 [Cpd 1384] | 313 | 0.061 | – | – | – |
| COc1cc(C(=O)N2CC(N3CCN(C(=O)c4ccccc4)CC3)C2)ccc1-c1ccccc1 [Cpd 615] | 123 | – | 0.097 | – | – |
| O=C(c1cscn1)N1CCN(C2CN(C(=O)c3cc4cccc(C(F)(F)F)c4s3)C2)CC1 [Cpd 332, 1-(1,3-Thiazol-4-ylcarbonyl)-4-(1-{[7-(trifluoromethyl)-1-benzothiophen-2-yl]carbonyl}azetidin-3-yl)piperazine] | 182 | 0.109 | – | – | – |
| O=C(c1ccccc1)N1CCN(C2CN(C(=O)c3ccc(Sc4cccc(Cl)c4)cc3)C2)CC1 [Cpd 427, 4-(1-{[4-(3-Chloro-phenylsulfanyl)phenyl]carbonyl}azetidin-3-yl)-1-(phenylcarbonyl)-piperazine] | 163 | – | 0.0335 | – | – |
| COc1cc(C(=O)N2CC(N3CCN(C(=O)c4ccccc4)CC3)C2)ccc1-c1ccc(Cl)c(C(F)(F)F)c1 [Cpd 264, 1-(1-{[4′-Chloro-2-methoxy-3′-(trifluoromethyl)biphenyl-4-yl]carbonyl}azetidin-3-yl)-4-(phenylcarbonyl)piperazine] | 172 | 0.01 | – | – | – |
| O=C(c1ccccc1)N1CCN(C2CN(C(=O)c3ccc(SCc4cccc(Cl)c4Cl)cc3)C2)CC1 [Cpd 411, 1-[1-({4-[(2,3-Dichlorobenzyl)sulfanyl]phenyl}carbonyl)azetidin-3-yl]-4-(phenylcarbonyl)piperazine] | – | – | 0.0333 | 741 | – |
| Cc1cc(C(=O)N2CC(N3CCN(C(=O)c4ccccc4)CC3)C2)ccc1-c1ccc(Cl)c(C(F)(F)F)c1 [Cpd 260, 1-(1-{[4′-Chloro-2-methyl-3′-(trifluoromethyl)biphenyl-4-yl]carbonyl}azetidin-3-yl)-4-(phenylcarbonyl)piperazine] | 140 | 0.02 | – | – | – |
| Cc1nc(-c2cccc(Cl)c2)sc1C(=O)N1CC(N2CCN(C(=O)c3cscn3)CC2)C1 [Cpd 1381] | 604 | 0.083 | – | – | – |

Continued, values first:

| 2-AG accumulation, % of vehicle control at 1 µM (MGL) [%] | Kd (mutant MGL; [1]) [µM] | Kd (mutant MGL; [2]) [µM] | 2-AG accumulation, % of vehicle control at 10 µM (MGL) [%] | Kd (mutant MGL; ThermoFluor, compound concentration measured by qNMR, read-out: MGL mutant ThermoFluor qKd (μM) (using qNMR conc.)) [µM] | Structure (SMILES) |
| --- | --- | --- | --- | --- | --- |
| 97 | 0.141 | – | – | – | O=C(c1ccc(OCc2cccnc2)c(Cl)c1)N1CC(N2CCN(C(=O)c3nccs3)CC2)C1 [Cpd 402, 1-(1-{[3-Chloro-4-(pyridin-3-ylmethoxy)phenyl]carbon-yl}azetidin-3-yl)-4-(1,3-thiazol-2-ylcarbonyl)piperazine] |
| 169 | – | 0.029 | – | – | Cc1cc(C(=O)N2CC(N3CCN(C(=O)c4cscn4)CC3)C2)ccc1-c1ccccc1 [Cpd 1406] |
| 198 | 0.025 | – | – | – | O=C(c1ccc(-c2ccccc2)cc1)N1CC(N2CCN(C(=O)c3ccc(Cl)o3)CC2)C1 [Cpd 312, 1-[1-(Biphenyl-4-ylcarbonyl)azetidin-3-yl]-4-[(5-chlorofuran-2-yl)carbonyl]piperazine] |
| – | – | 0.029 | 604 | – | O=C(c1ccc(Cc2ccccc2)cc1)N1CCN(C2CN(C(=O)c3ccccc3)C2)CC1 [Cpd 61, 1-[(4-Benzylphenyl)carbonyl]-4-[1-(phenylcarbonyl)azetidin-3-yl]piperazine] |
| 318 | – | 0.0331 | – | – | O=C(c1ccc(Sc2cccc(Cl)c2)cc1)N1CC(N2CCN(C(=O)c3cscn3)CC2)C1 [Cpd 429] |
| 514 | – | 0.081 | – | – | O=C(c1ccc(CSc2cccc(Cl)c2)cc1)N1CC(N2CCN(C(=O)c3cscn3)CC2)C1 [Cpd 956] |
| 819 | – | – | – | 0.01 | N#Cc1cccc(-n2ccc3cc(C(=O)N4CC(N5CCN(C(=O)c6nccs6)CC5)C4)ccc32)c1 [Cpd 1113] |
| 917 | – | 0.012 | – | – | O=C(c1ccc(COc2cccc(Cl)c2)cc1)N1CC(N2CCN(C(=O)c3nccs3)CC2)C1 [Cpd 453, 1-[1-({4-[(3-Chlorophenoxy)methyl]phenyl}carbonyl)azetidin-3-yl]-4-(1,3-thiazol-2-ylcarbonyl)piperazine] |
| 188 | 0.338 | – | – | – | O=C(c1ccc(OCc2ccncc2)cc1)N1CC(N2CCN(C(=O)c3nccs3)CC2)C1 [Cpd 403, 1-(1-{[4-(Pyridin-4-ylmethoxy)phenyl]carbonyl}azetidin-3-yl)-4-(1,3-thiazol-2-ylcarbonyl)piperazine] |
| – | 0.0013 | – | 494 | – | O=C(c1cc2ccc(C(F)(F)F)cc2s1)N1CC(N2CCN(C(=O)c3nccs3)CC2)C1 [Cpd 323, 1-(1,3-Thiazol-2-ylcarbonyl)-4-(1-{[6-(trifluoromethyl)-1-benzothiophen-2-yl]carbonyl}azetidin-3-yl)piperazine] |
| 556 | 0.065 | – | – | – | O=C(c1ccc2c(c1)CCCN2C(=O)c1cccc(C(F)(F)F)c1)N1CC(N2CCN(C(=O)c3nccs3)CC2)C1 [Cpd 358, 6-(3-[4-(1,3-Thiazol-2-ylcarbonyl)piperazin-1-yl]-azetidin-1-yl)-carbonyl 1-[3-(trifluoromethyl)phenyl]carbonyl-1,2,3,4-tetrahydroquinoline] |
| 170 | – | 0.499 | – | – | O=C(c1nccs1)N1CCN(C2CN(C(=O)[C@@H]3C[C@H]3c3ccccc3Cl)C2)CC1 (racemic) [Cpd 642] |
| 807 | 0.005 | – | – | – | O=C(c1nccs1)N1CCN(C2CN(C(=O)c3sc4cc(F)ccc4c3Cl)C2)CC1 [Cpd 930] |
| 734 | – | 0.0033 | – | – | O=C(c1ccc(Sc2cccc(Cl)c2)cc1)N1CC(N2CCN(C(=O)c3nccs3)CC2)C1 [Cpd 428] |
| 194 | 0.019 | – | – | – | O=C(c1ccc(OCc2cccc(Br)n2)cc1)N1CC(N2CCN(C(=O)c3nccs3)CC2)C1 [Cpd 983] |
| 176 | 0.0829 | – | – | – | O=C(c1ccc2c(c1)CCCN2C(=O)C1CC1)N1CC(N2CCN(C(=O)c3nccs3)CC2)C1 [Cpd 359, 1-(Cyclopropylcarbonyl)-6-({3-[4-(1,3-thiazol-2-ylcarbon-yl)piperazin-1-yl]azetidin-1-yl}carbonyl)-1,2,3,4-tetrahydroquinoline] |
| 282 | 0.042 | – | – | – | O=C(c1nccs1)N1CCN(C2CN(C(=O)c3cc(-c4ccccc4)oc3C(F)(F)F)C2)CC1 [Cpd 1379] |
| 378 | 0.0816 | – | – | – | O=C(c1cc2cccc(C(F)(F)F)c2s1)N1CC(N2CCN(C(=O)c3nccs3)CC2)C1 [Cpd 328] |
